Assay results taken from PMC7281206, “Cysteine Cathepsins Inhibition Affects Their Expression and Human Renal Cancer Cell Phenotype” (Cancers, 2020).
*: point of attachment. CH2F = FC*

How the values were obtained:
Assay type in all cases: cell-based, human
SNAIL1 in 769-P cells = experiment: SNAIL1 protein expression (western blot), 769-P; conditions: 72 h
Description: These properties could be the result of the modulation of the effectors controlling EMT, as previously shown in other tumor models. To test this hypothesis, the cells were treated with the inhibitors for 24, 48, and 72 h by changing the media every day, and they were tested for E-cadherin and SNAIL1 expression (Figure 6; detail information of western blots can be seen in Supplementary Figure S7). Figure 6 Effects of the peptides on E-cadherin and SNAIL1 protein expression: (a,b) protein expression of E-cadherin and SNAIL1 in 769-P and (c,d) A498 cells after 24, 48, and 72 h of treatment with the peptides. Data are represented as mean ± SD of at least three replicates. Significance was calculated through one-way ANOVA, followed by Dunnet’s test. Cells were seeded in RPMI containing 10% FBS and cultured for 24 h. Next, 30 µM of inhibitors were added to the culture medium and incubated for 24, 48, and 72 h. Control cells were treated with 0.01% DMSO. At all time points the samples were lysed in 50 mM Tri-HCl (pH 8.0), 100 mM NaCl, 0.5% NP-40, 1% Triton X-100, 1× protease inhibitor cocktail (ThermoFisher, Waltham, MA, USA). The 50 µg of protein lysates were separated by electrophoresis on a 12% SDS-PAGE gel and transferred to the PFDF membranes. […] After an additional wash (three times with PBS), reactive bands were detected by chemiluminescence (Bio-Rad, Irvine, CA, USA). […]

LAMP-1 in 769-P cells = experiment: LAMP-1 expression (confocal microscopy), 769-P; conditions: 20 μM
Description: Figure 7 Effect of the peptides on LAMP-1 protein expression: (a) Western blotting analysis of LAMP-1 after treatment with PLVE and VLPE (20 μM) for 24, 48, and 72 h in 769-P cells. (b) Confocal microscopy evaluation of LAMP-1 expression after 48 and 72 h of treatment with PLVE and VLPE (20 μM) in 769-P cells. (c) Western blotting analysis of LAMP-1 after treatment with PLVE and VLPE (20 μM) for 24, 48, and 72 h in A498 cells. (d) Confocal microscopy evaluation of LAMP-1 expression after 48 and 72 h of treatment with PLVE and VLPE (20 μM) in A498 cells. Data are represented as mean ± SD of at least three replicates. Significance was calculated through one-way ANOVA followed by Dunnet’s test. * = p < 0.05, ** = p < 0.01, *** = p < 0.001. The cells were treated for 48 and 72 h, then were fixed in 4% PFA/PBS for 15 min and permeabilized in 0.25% Triton®X-100 for 10 min. After blocking the non-specific sites in 2% BSA/PBS-T, the immunofluorescence was performed overnight with primary antibody anti-LAMP-1 (1:100, Abcam, Eugene, OR, USA) incubation, followed by incubation with the appropriate fluorophore-labeled secondary antibody Donkey anti-Rabbit IgG (H+L) ReadyProbes™, Alexa Fluor 488 (1:500; ThermoFisher, USA). The cells were then counterstained with nuclear dye DAPI and visualized under a fluorescent and/or confocal microscope (Olympus BX51, Shinjuku, Tokyo, Japan, and AxioObserver Z1, Zeiss, Oberkochen, Germany) using oil-immersion lenses.

[1] = system: A498 cells (proteolytic activity); experiment: Cell proteolytic activity towards Ac-PLVQ-AMC, A498; conditions: 30 min peptide, then 10 min Ac-PLVQ-AMC; fluorescence microscopy and fluorimetric analysis
Description: To evaluate the inhibitory properties of the peptides directly on the human renal cancer cells, we firstly assessed the impact of Ac-PLVE-FMK and Ac-VLPE-FMK on the cell viability of 769-P and A498 cells to determine the working concentrations for further experiments. […] Further experiments were performed using a concentration of 20 μM. To understand if the peptides could affect the activity of caspase proteases, we tested their effect on cell viability in combination with the chemotherapeutic paclitaxel (PXT) in both the cell lines. […] Next, we evaluated the effect of the peptides on renal cancer cell proteolytic activity against the fluorogenic probe Ac-PLVQ-AMC. In this case, 769-p and A498 cells were treated for 30 min with Ac-PLVE-FMK or Ac-VLPE-FMK and were then exposed for 10 min to the substrate Ac-PLVQ-AMC prior fluorescence microscopy analysis (Figure 3c,d).
Figure 3 The effect of the peptide inhibitors on human 769-P and A498 renal cancer cell proliferation and proteolytic activity. […] Cell proliferation was measured after 24, 48, and 72 h via MTT (3-(4,5-dimethylthiazol-2-yl)-2,5-diphenyltetrazolium bromide) assay. […] (c) Fluorescence microscopy evaluation and quantification of the cell proteolytic activity in 769-P and (d) A498 cells towards the fluorogenic substrate Ac-PLVQ-AMC in the absence or presence of Ac-PLVE-FMK and Ac-VLPE-FMK. […]

Substance	SNAIL1 protein expression (SNAIL1 in 769-P cells)	LAMP-1 expression (confocal) (LAMP-1 in 769-P cells; 48 h)	LAMP-1 expression (confocal) (LAMP-1 in 769-P cells; 72 h)	Inhibition of probe degradation (cell proteolytic activity) [1]
Ac-PLVE-CH2F [Ac-PLVE-FMK]	increased significantly at 72 h only in the case of 769P cells treated with AC-PLVE-FMK	increased LAMP-1 expression	the content of LAMP-1 decreased towards control levels	significantly inhibited the probe degradation
Ac-VLPE-CH2F [Ac-VLPE-FMK]	dropped to values more similar to the control	increased LAMP-1 expression	the content of LAMP-1 decreased towards control levels	significantly inhibited the probe degradation
